US9573957B2 (Boehringer Ingelheim International GmbH, priority 2013, dated 2017)

What was measured:
human LTA4 hydrolase = human LTA4 hydrolase (Homo sapiens (Human), UniProt P09960); experiment: LTA4H Enzyme assay (peptidase, Arg-AMC cleavage); assay type: biochemical; conditions: LTA4H Enzyme 1 nM, Arg-AMC substrate 50 μM, room temperature 1 h, fluorescence
In short: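 Aminomethylcoumarin release measured fluorimetrically (380/460 nm) after 1 h at room temperature. Reaction: 1 nM final enzyme, 50 μM final Arg-AMC and compound in Tris-HCl pH 7.5 with 100 mM KCl and 0.5% BSA.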

[1] = system: synthesis of LTB4 in human whole blood; experiment: LTB4 production inhibition assay in human whole blood (HWB); assay type: cell-based; conditions: heparinized human whole blood, 15 min at 37° C., Calcimycin 20 μM 30 min, plasma LTB4 by HTRF
In short: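 LTB4 in plasma read by HTRF immunoassay after centrifugation. Before that, compound sat with heparinized human whole blood 15 min at 37° C, followed by 30 min at 37° C with 20 μM (final) calcimycin.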

Sequence of human LTA4 hydrolase (P09960 whole entry): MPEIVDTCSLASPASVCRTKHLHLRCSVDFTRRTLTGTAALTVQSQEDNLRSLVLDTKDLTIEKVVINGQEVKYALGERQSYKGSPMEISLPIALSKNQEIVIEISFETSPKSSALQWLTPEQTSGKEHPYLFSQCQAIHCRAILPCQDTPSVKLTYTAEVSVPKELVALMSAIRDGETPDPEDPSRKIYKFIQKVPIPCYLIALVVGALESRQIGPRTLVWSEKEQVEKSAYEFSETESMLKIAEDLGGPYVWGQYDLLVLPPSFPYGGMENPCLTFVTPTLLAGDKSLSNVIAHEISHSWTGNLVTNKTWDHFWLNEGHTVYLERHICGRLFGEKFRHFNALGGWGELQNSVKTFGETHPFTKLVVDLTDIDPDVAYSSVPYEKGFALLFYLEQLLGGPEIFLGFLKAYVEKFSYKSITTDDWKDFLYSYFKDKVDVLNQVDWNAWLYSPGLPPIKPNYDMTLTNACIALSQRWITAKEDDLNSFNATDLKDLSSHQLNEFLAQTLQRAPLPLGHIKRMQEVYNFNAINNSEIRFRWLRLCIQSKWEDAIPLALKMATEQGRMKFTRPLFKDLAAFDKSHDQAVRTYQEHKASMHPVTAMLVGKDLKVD

| SMILES | IC50 (human LTA4 hydrolase) | IC50 [1] |
| --- | --- | --- |
| COCC(=O)N1CCN(CCc2coc3cc(Oc4ccc(-c5ccn[nH]5)cn4)ccc23)CC1 [Example 77, 2-Methoxy-1-[4-(2-{6-[5-(2H-pyrazol-3-yl)-pyridin-2-yloxy]-benzofuran-3-yl}-ethyl)-piperazin-1-yl]-ethanone] | 0.88 nM | 170 nM |
| O=C1[C@@H](O)CCN1C1CCN(Cc2ccc3cc(Oc4ncc(-c5ccn[nH]5)cn4)ccc3c2)CC1 [Example 29, (S)-3-Hydroxy-1-(1-{6-[5-(2H-pyrazol-3-yl)-pyrimidin-2-yloxy]-naphthalen-2-ylmethyl}-piperidin-4-yl)-pyrrolidin-2-one] | 1.8 nM | 220 nM |
| O[C@@H]1CCCN(Cc2ccc3cc(Oc4ccc(-c5ccn[nH]5)cn4)ccc3c2)C1 [Example 15, (R)-1-{6-[5-(2H-Pyrazol-3-yl)-pyridin-2-yloxy]-naphthalen-2-ylmethyl}-piperidin-3-ol] | 1 nM | 190 nM |
| CC(C)(O)C(=O)N1CCN(Cc2ccc3cc(Oc4ccc(-c5ccn[nH]5)cn4)ccc3n2)CC1 [Example 125, 2-Hydroxy-2-methyl-1-(4-{6-[5-(2H-pyrazol-3-yl)-pyridin-2-yloxy]-quinolin-2-ylmethyl}-piperazin-1-yl)-propan-1-one] | 1.2 nM | 340 nM |
| O=C1CCCN1C1CCN(CCC2COc3cc(Oc4ccc(-c5ccn[nH]5)cn4)ccc32)CC1 (stereo not shown) [Example 68, 1-[1-(2-{6-[5-(2H-Pyrazol-3-yl)-pyridin-2-yloxy]-2,3-dihydro-benzofuran-3-yl}-ethyl)-piperidin-4-yl]-pyrrolidin-2-one] | 1.1 nM | 270 nM |
| CC(C)(O)CC(=O)N1CCN(Cc2ccc3cc(Oc4ccc(-c5ccn[nH]5)cn4)ccc3n2)CC1 [Example 122, 3-Hydroxy-3-methyl-1-(4-{6-[5-(2H-pyrazol-3-yl)-pyridin-2-yloxy]-quinolin-2-ylmethyl}-piperazin-1-yl)-butan-1-one] | 3.9 nM | 570 nM |
| CO[C@H](C)C(=O)N1CCN(Cc2cn3cc(Oc4ccc(-c5ccn[nH]5)cc4)ccc3n2)CC1 [Example 80, (R)-2-Methoxy-1-(4-{6-[4-(2H-pyrazol-3-yl)-phenoxy]-imidazo[1,2-a]pyridin-2-ylmethyl}-piperazin-1-yl)-propan-1-one] | 0.85 nM | 200 nM |
| O=C1CCCN1C1CCN(C[C@@H]2Cc3ccc(Oc4ccc(-c5ccn[nH]5)cn4)cc3O2)CC1 [Example 64, 1-(1-{(S)-6-[5-(2H-Pyrazol-3-yl)-pyridin-2-yloxy]-2,3-dihydro-benzofuran-2-ylmethyl}-piperidin-4-yl)-pyrrolidin-2-one] | 0.95 nM | 150 nM |
| CCCOCC(=O)N1CCN(Cc2ccc3cc(Oc4ccc(-c5ccn[nH]5)cn4)ccc3n2)CC1 [Example 144, 2-Propoxy-1-(4-{6-[5-(2H-pyrazol-3-yl)-pyridin-2-yloxy]-quinolin-2-ylmethyl}-piperazin-1-yl)-ethanone] | 2.3 nM | 660 nM |
| C[C@H](O)CC(=O)N1CCN(Cc2ccc3cc(Oc4ccc(-c5ccn[nH]5)cn4)ccc3n2)CC1 [Example 117, (S)-3-Hydroxy-1-(4-{6-[5-(2H-pyrazol-3-yl)-pyridin-2-yloxy]-quinolin-2-ylmethyl}-piperazin-1-yl)-butan-1-one] | 3.7 nM | 670 nM |
| N#CCC(=O)N1CC2CCC(C1)N2Cc1ccc2cc(Oc3ccc(-c4ccn[nH]4)cn3)ccc2n1 [Example 50, 3-Oxo-3-(8-{6-[5-(2H-pyrazol-3-yl)-pyridin-2-yloxy]-quinolin-2-ylmethyl}-3,8-diaza-bicyclo[3.2.1]oct-3-yl)-propionitrile] | 0.69 nM | 170 nM |
| O=C1OCCN1C1CCN(Cc2ccc3cc(Oc4ncc(-c5ccn[nH]5)cn4)ccc3c2)CC1 [Example 33, 3-(1-{6-[5-(2H-Pyrazol-3-yl)-pyrimidin-2-yloxy]-naphthalen-2-ylmethyl}-piperidin-4-yl)-oxazolidin-2-one] | 0.92 nM | 150 nM |
| OC1CC2(C1)CN(Cc1ccc3cc(Oc4ccc(-c5ccn[nH]5)cn4)ccc3c1)C2 [Example 10, 2-{6-[5-(2H-Pyrazol-3-yl)-pyridin-2-yloxy]-naphthalen-2-ylmethyl}-2-aza-spiro[3.3]heptan-6-ol] | 0.48 nM | 150 nM |
| CC(=O)N1CC(CN(C)Cc2ccc3cc(Oc4ncc(-c5ccn[nH]5)cn4)ccc3c2)C1 [Example 32, 1-{3-[(Methyl-{6-[5-(2H-pyrazol-3-yl)-pyrimidin-2-yloxy]-naphthalen-2-ylmethyl}-amino)-methyl]-azetidin-1-yl}-ethanone] | 1.1 nM | 180 nM |
| O=C([C@@H]1CCOC1)N1CCN(Cc2ccc3cc(Oc4ccc(-c5ccn[nH]5)cn4)ccc3n2)CC1 [Example 141, (4-{6-[5-(2H-Pyrazol-3-yl)-pyridin-2-yloxy]-quinolin-2-ylmethyl}-piperazin-1-yl)-(R)-tetrahydro-furan-3-yl-methanone] | 2.7 nM | 400 nM |
| O=C([C@H]1CCCO1)N1CC2CCC(C1)N2Cc1ccc2cc(Oc3ccc(-c4ccn[nH]4)cn3)ccc2n1 [Example 54, (8-{6-[5-(2H-Pyrazol-3-yl)-pyridin-2-yloxy]-quinolin-2-ylmethyl}-3,8-diaza-bicyclo[3.2.1]oct-3-yl)-(R)-tetrahydro-furan-2-yl-methanone] | 1.3 nM | 190 nM |
| C[C@@H](O)CC(=O)N1CCN(Cc2ccc3cc(Oc4ccc(-c5ccn[nH]5)cn4)ccc3n2)CC1 [Example 121, (R)-3-Hydroxy-1-(4-{6-[5-(2H-pyrazol-3-yl)-pyridin-2-yloxy]-quinolin-2-ylmethyl}-piperazin-1-yl)-butan-1-one] | 4.9 nM | 620 nM |
| CC(C)C(=O)N1CCN(Cc2ccc3cc(Oc4ncc(-c5ccn[nH]5)cn4)ccc3c2)CC1 [Example 41, 2-Methyl-1-(4-{6-[5-(2H-pyrazol-3-yl)-pyrimidin-2-yloxy]-naphthalen-2-ylmethyl}-piperazin-1-yl)-propan-1-one] | 0.97 nM | 430 nM |
| O=C([C@@H]1CCC[C@@H]1O)N1CCN(Cc2ccc3cc(Oc4ccc(-c5ccn[nH]5)cn4)ccc3n2)CC1 [Example 151, ((1R,2S)-2-Hydroxy-cyclopentyl)-(4-{6-[5-(2H-pyrazol-3-yl)-pyridin-2-yloxy]-quinolin-2-ylmethyl}-piperazin-1-yl)-methanone] | 6.1 nM | 800 nM |
| CO[C@H](C)C(=O)N1CC2CCC(C1)N2Cc1ccc2cc(Oc3ccc(-c4ccn[nH]4)cn3)ccc2n1 [Example 52, (R)-2-Methoxy-1-(8-{6-[5-(2H-pyrazol-3-yl)-pyridin-2-yloxy]-quinolin-2-ylmethyl}-3,8-diaza-bicyclo[3.2.1]oct-3-yl)-propan-1-one] | 0.77 nM | 150 nM |
| CC1(O)CN(Cc2ccc3cc(Oc4ccc(-c5ccn[nH]5)cn4)ccc3c2)C1 [Example 11, 3-Methyl-1-{6-[5-(2H-pyrazol-3-yl)-pyridin-2-yloxy]-naphthalen-2-ylmethyl}-azetidin-3-ol] | 0.53 nM | 110 nM |
| C[C@H](O)C(=O)N1CCN(Cc2ccc3cc(Oc4ncc(-c5ccn[nH]5)cn4)ccc3c2)CC1 [Example 30, (S)-2-Hydroxy-1-(4-{6-[5-(2H-pyrazol-3-yl)-pyrimidin-2-yloxy]-naphthalen-2-ylmethyl}-piperazin-1-yl)-propan-1-one] | 1.3 nM | 230 nM |
| O[C@H]1CCN(Cc2ccc3cc(Oc4ncc(-c5ccn[nH]5)cn4)ccc3c2)C1 [Example 46, (S)-1-{6-[5-(2H-Pyrazol-3-yl)-pyrimidin-2-yloxy]-naphthalen-2-ylmethyl}-pyrrolidin-3-ol] | 2.5 nM | 230 nM |
| N#CC1(C(=O)N2CCN(Cc3ccc4cc(Oc5ccc(-c6ccn[nH]6)cn5)ccc4n3)CC2)CCC1 [Example 146, 1-(4-{6-[5-(2H-Pyrazol-3-yl)-pyridin-2-yloxy]-quinolin-2-ylmethyl}-piperazine-1-carbonyl)-cyclobutanecarbonitrile] | 3.4 nM | 750 nM |
| O=C(CO)N1CCC2(CCN(Cc3coc4cc(Oc5ccc(-c6ccn[nH]6)cn5)ccc34)C2)C1 (stereo not shown) [Example 115, 2-Hydroxy-1-(7-{6-[5-(2H-pyrazol-3-yl)-pyridin-2-yloxy]-benzofuran-3-ylmethyl}-2,7-diaza-spiro[4.4]non-2-yl)-ethanone] | 0.43 nM | 120 nM |
| O=C(N1CCN(CCC2COc3cc(Oc4ccc(-c5ccn[nH]5)cn4)ccc32)CC1)C1(O)CC1 (stereo not shown) [Example 90, (1-Hydroxy-cyclopropyl)-[4-(2-{6-[5-(2H-pyrazol-3-yl)-pyridin-2-yloxy]-2,3-dihydro-benzofuran-3-yl}-ethyl)-piperazin-1-yl]-methanone] | 1.5 nM | 640 nM |
| CS(=O)(=O)N1CCN(CCc2coc3cc(Oc4ccc(-c5ccn[nH]5)cn4)ccc23)CC1 [Example 74, 1-Methanesulfonyl-4-(2-{6-[5-(2H-pyrazol-3-yl)-pyridin-2-yloxy]-benzofuran-3-yl}-ethyl)-piperazine] | 1.4 nM | 350 nM |
| CC(C)(C#N)C(=O)N1CCN(Cc2ccc3cc(Oc4ccc(-c5ccn[nH]5)cn4)ccc3n2)CC1 [Example 145, 2,2-Dimethyl-3-oxo-3-(4-{6-[5-(2H-pyrazol-3-yl)-pyridin-2-yloxy]-quinolin-2-ylmethyl}-piperazin-1-yl)-propionitrile] | 1.3 nM | 510 nM |
| O=C1[C@@H](O)CCN1C1CCN(Cc2ccc3cc(Oc4ccc(-c5ccn[nH]5)cn4)ccc3n2)CC1 [Example 8, (S)-3-Hydroxy-1-(1-{6-[5-(2H-pyrazol-3-yl)-pyridin-2-yloxy]-quinolin-2-ylmethyl}-piperidin-4-yl)-pyrrolidin-2-one] | 0.86 nM | 230 nM |
